According to patent US20240091138A1, “TOPICAL C[…]” (EGIS GYÓGYSZERGYÁR ZRT., priority 2021, published 2024):

How the values were obtained:
[1] = Pharmacokinetic studies (blood levels of pregabalin); conditions: during topical treatment
Solubility of pregabalin = conditions: in any solvents
Wistar rats = test: Chronic constriction injury (CCI) rat model of neuropathy, paw withdrawal threshold with electronic von Frey; assay type: in vivo; conditions: 16.66 mg/kg
Source text: Furthermore, based on the article Bennett G J, at al (Pain, A peripheral mononeuropathy in rat that produces disorders of pain sensation like those seen in man. 1988 April; 33(1):87-107) we have developed a method for the examination of the compositions of the present invention. Thus, we have examined the compositions according to the present invention also with a different model for measuring the alleviation of the peripheral neuropathic pain also. Namely, we have carried out examinations on rats using Chronic constriction injury (CCI) model. Three weeks following nerve injury rats were assessed for hind paw mechanical withdrawal thresholds. The paw withdrawal threshold (PWT) was determined with an Electronic von Frey device according to the modified up-down method of Dixon (Efficient analysis of experimental observations, Annu Rev Pharmacol Toxicol. 1980; 20:441-62). […] The method and results are shown in example 3 and on FIG. 9.
Thus, the compositions of the present invention are effective in the treatment of neuropathic pain. […]
Briefly, under isoflurane anesthesia small blunt dissection was made into the skin of rat right thigh then three loosely constrictive ligatures were placed around common sciatic nerve (chronic constriction injury CCI). Three weeks following nerve injury rats were assessed for hind paw mechanical withdrawal thresholds. […]

Structure (SMILES): CC(C)C[C@H](CN)CC(=O)O [pregabalin]
- amount of pregabalin entering the bloodstream [1]: very small amounts
- Solubility (Solubility of pregabalin): poor
- reduction of hypersensitivity after oral administration (Wistar rats): not able to reduce hypersensitivity
